According to US6949679B1, “Polyamine transport inhibitors” (Universite Laval, priority 1998, dated 2005):

Tests used:
[1] = MESC: amino group neighboring the amide linkage; cited from earlier work
ZR-75-1 cells [2] = test: Time course of intracellular [3H]spermidine accumulation in presence of transport antagonists; format: cell-based, human; conditions: 200 μM DESC (40-fold excess), 5 μM [3H]spermidine, after 6 hours
Description: The time course of intracellular accumulation of spermidine in the presence of transport antagonists was determined by incubating ZR-75-1 cells in 24-well plates with DESC (50 or 200 μM) or MESC (200 μM) in dissolved in MEZR medium containing 5 μM [^3H]spermidine in the presence or absence of cycloheximide (CHX, 200 μM), and harvesting at the indicated times for the determination of intracellular radioactive contents, as described above for polyamine uptake assays.

ZR-75-1 cells [3] = test: Reversal of DFMO-induced growth inhibition by exogenous spermidine; format: cell-based, human; conditions: 50 μM DESC, DESC:spermidine ratio up to 500
Description: For growth studies, ZR-75-1 cells were cultured in MEZR medium or in phenol red-free RPMI 1640 supplemented with 2 mM L-glutamine, 1 mM sodium pyruvate, 15 mM Hepes, antibiotics, 1 nM 17β-estradiol, 0.5 μg of bovine insulin per ml and 5% (v/v) charcoal-treated fetal bovine serum (SD medium), as indicated in the text. When polyamines or polyamine analogs were added to serum-containing media, 1 mM aminoguanidine was added to inhibit bovine serum amine oxidase (BSAO) activity (Morgan, D. M. L. 1989, in The Physiology of Polyamines (Bachrach, U., and Heimer, Y. M. eds) Vol. I, pp. 203-229, CRC Press, Boca Raton). The effect of the transport inhibitors on cell growth was measured by incubating ZR-75-1 cells for 11 days in medium supplemented with antagonist, polyamines and/or 1 mM DFMO as indicated, followed by colorimetric determination of DNA content with 3,4-diaminobenzoic acid (Simard, J., Dauvois, S., Haagensen, D. E., Lėvesque C., Mėrand, Y. and Labriė, F. 1990. Endocrinology 126: 3223-3231).
This possibility was assessed by comparing the ability of DESC to prevent the reversal of DFMO-induced growth inhibition by increasing concentrations of exogenous spermidine.

[4] = Stability in biological media (cell-free, HPLC); format: physicochemical; conditions: IMEM, 48 hours, 37° C.
Description: DESC stability was tested by incubating the compound dissolved (at 50 μM) in PBS or in IMEM medium containing 10% (v/v) fetal bovine serum plus or minus 1 mM aminoguanidine in a humid 5% CO2 atmosphere at 37° C. and in the absence of cells. At indicated times, trichloroacetic acid was added to aliquots of this solution to a final concentration 10% (w/v) and the samples directly analyzed by HPLC as above.
The inability of DESC to block the biological effect of exogenous spermidine, even when present at large molar excesses, might have been caused by its degradation in growth media. To assess this hypothesis, DESC solutions (20 μM) made in PBS or in sterile IMEM medium enriched with 10% (v/v) FBS were incubated for 20 minutes or 48 hours under cell-free conditions at 37° C. in a humid 5% CO2 atmosphere, and the polyamine analog was then analyzed by ion-pair reversed-phase HPLC. After 48 hours, degradation of DESC to two new amine-containing derivatives occurred in IMEM (FIG. 9A, B) but not in PBS (FIG. 9C), as evidenced by the appearance of a major (compound 1) and minor (compound 2) peaks of o-phthaldialdehyde-reactive material eluting earlier than DESC. […] After 48 hours, i.e. the interval at which freshly made DESC-containing media were added to cell cultures in growth experiments, 40% of the DESC originally present had been decomposed by IMEM. […]

[5] = Stability in buffered aqueous solution; format: physicochemical; conditions: buffered at pH=7.0
polyamine transporter = test: Inhibition of [14C]spermine uptake in ZR-75-1 cells; format: cell-based, human; conditions: 3μM substrate (Example 11), read-out: Ki, [14C]spermine transport

Row | DESC originally present decomposed [4] [%] | Stability in aqueous solutions [5] | Compound | pKa of secondary amino group of the spermine head [1] | Decrease of net spermidine accumulation (ZR-75-1 cells [2]) [%] | Ability to prevent reversal of DFMO-induced growth inhibition by spermidine (ZR-75-1 cells [3]) | Ki (polyamine transporter) [µM]
1 | – | – | NCCCNCCCC(NCCCN)C(=O)NCCS (stereo not drawn) [MESC, N-(2-mercaptoethyl)spermine-5-carboxamide] | 5.5 | – | – | –
2 | 40 | stable for months | NCCCNCCCC(NCCCN)C(=O)NCCSSCCNC(=O)C(CCCNCCCN)NCCCN (stereo not drawn) [DESC, 2,2′-dithiobis(N-ethyl-spermine-5-carboxamide)] | – | 50 | unable to prevent the reversal | 17
